Measured values as given in patent US20160067162A1, “PHOTOPROTECTIVE COMPOUNDS, COMPOSITIONS INCLUDING SAME AND USES THEREOF” (UNIVERSITE DE RENNES 1, priority 2013, published 2016).

Tests used:
Format in all cases: physicochemical
[1] = SPF measurement, Protocol I (Rennes): simplified O/W emulsion, UV spectrum 200-400 nm; conditions: for λc p.I: critical wavelength; for λc p.I / Colipa UVA-PF p.I, at 10% / SPF p.I, at 10%: protocol I; for Colipa UVA-PF p.I, at 10%: product at 10%; for SPF p.I, at 10%: product at 10% in simplified O/W emulsion; for UVA/UVB: ratio of area under the curve 315-400 nm to 280-315 nm
Protocol: The SPF measurement is carried out according to the following protocol described in Le Dévéhat F., Malargé A., Couteau C., Coiffard L., Legouin B. “Evaluation of a new UV-filter screening method”, 4th symposium of the AFERP “Biodiversity, chimie des substances naturelles et medicaments” [“Biodiversity, chemistry of natural substances and medicaments”] and 3rd Franco-Pakistani symposium, Besançon (France), Jul. 16-17-18, 2010. A solution of each product dissolved in dimethyl sulfoxide is incorporated at 10% into a simplified emulsion of oil-in-water (O/W) type consisting of liquid paraffin, water and SDS at 10%, the whole mixture taken up in absolute ethanol. The UV spectrum of each solution is recorded between 200 nm and 400 nm in a 10 mm quartz cell on a Uvikon 931 UV-vis spectrophotometer and measured in comparison with a control 10% emulsion solution.
(§1) The SPF and UVA-PF values are, for the two protocols, calculated from the following equations: […]
(§2) where Eλ is the erythemogenic effect of the radiation at the wavelength λ; Sλ is the spectral solar irradiance at the wavelength λ and Tλ is the spectral transmittance of the product at the wavelength λ, λc is the critical wavelength which corresponds to the wavelength at which 90% of the area under the curve (AUC) is integrated between 290 and 400 nm. The UVA/UVB ratio corresponds more specifically to the ratio of the area under the curve between 315 and 400 nm to the area under the curve between 280 and 315 nm.

[2] = UV spectrum measurement in CHCl3 (λmax, molar extinction coefficient); conditions: for λmax exp: 10^−4 M in CHCl3; for ε (molar extinction coefficient at the λmax): 10^−4 M in CHCl3, 1 cm cuvette
Protocol: The products are diluted in CHCl3 so as to obtain a solution at 10^−4M. The UV spectra are measured using a Uvikon 931 UV-vis spectrophotometer, Serlabo Technologies, Entraigues sur la Sorgue, France. This UV spectrum makes it possible to determine the molar extinction coefficient (mol^−1 L cm^−1) at the λmax by virtue of the Beer-Lambert law: c=A/l×C;
A=value of the absorbance at the λmax; l=length of the cuvette in cm (l=1);
C=concentration of the solution=1×10^−4 mol/l. The theoretical λmax was determined for certain products by DFT calculation.

[3] = SPF measurement, Protocol II (Nantes): O/W emulsion on PMMA plate, transmission with integrating sphere; conditions: for λc (p.II): critical wavelength; for SPF (p.II, at 1%): product at 1% in O/W emulsion, PMMA plate, 290-400 nm; for Colipa UVA-PF (p.II, at 1%): product at 1%, 320-400 nm
Protocol: The SPF measurement is carried out according to the protocol described in Lohézic-Le Dévéhat F., Legouin B., Couteau C., Boustie J., Coiffard L. “Lichenic extracts and metabolites as UV filters” Journal of Photochemistry and Photobiology B: Biology 120 (2013) 17-28:
An emulsion having the following formulation is used: […]
The two phases are prepared separately. The hydrophilic phase is then added, with stirring, to the lipophilic phase. The products are finally incorporated at 1% into this O/W emulsion. 30 mg of the whole mixture are distributed over the entire surface area (25 cm^2) of a PMMA plate using a finger store. After spreading, 15 mg remain on the finger store. Three plates are prepared per product and nine measurements are carried out. The transmission measurements between 290 and 400 nm for the SPF and between 320 and 400 nm for the UVA-PF are carried out using a spectrophotometer equipped with an integrating sphere (UV Transmittance analyzer UV1000S, Labsphere, North Sutton, US).
as §1, §2

Row | Molecule | λmax exp [2] [nm] | ε (molar extinction coefficient at the λmax) [2] [L/mol/cm] | λc p.I [1] [nm] | Colipa UVA-PF p.I, at 10% [1] | SPF p.I, at 10% [1] | UVA/UVB [1] | λc (p.II) [3] [nm] | SPF (p.II, at 1%) [3] | Colipa UVA-PF (p.II, at 1%) [3] | Colipa UVA-PF p.I, at 10% ([1]; listed as oxybenzone)
1 | CCOC(=O)/C=C/C1=C(c2ccccc2)NCCC1=O [Compound 8, (E)-ethyl 3-(4-oxo-2-phenyl-1,4,5,6-tetrahydropyridin-3-yl)acrylate] | 306 | 16596 | 378 | 5.38 ± 0.16 | 6.73 ± 0.27 | 2.22 ± 0.01 |  |  |  | 
2 | CN(C)c1ccc(C2=CC(=O)CCN2)cc1 [Compound 4, 6-(4-(dimethylamino)phenyl)-2,3-dihydropyridin-4(1H)-one] | 355 | 26286 | 361 | 42.67 ± 1.16 | 9.24 ± 0.18 | 5.19 ± 0.01 | 387 | 1.72 ± 0.08 | 1.88 ± 0.09 | 
3 | PEG-25 PABA [reference compound] |  |  | 324 ± 1 | 1.11 ± 0.01 | 2.04 ± 0.05 | 0.19 ± 0.01 |  |  |  | 
4 | O=C1C=C(c2ccc(Cl)cc2)NCC1 [Compound 1, 6-(4-chlorophenyl)-2,3-dihydropyridin-4(1H)-one] | 328 | 8131 | 366 | 3.97 ± 0.15 | 2.27 ± 0.06 | 4.78 ± 0.57 |  |  |  | 
5 | O=C1C=C(c2ccc(F)cc2)NCC1 [Compound 2, 6-(4-fluorophenyl)-2,3-dihydropyridin-4(1H)-one] | 326 | 10924 | 361 | 5.85 ± 0.16 | 4.30 ± 0.12 | 3.08 ± 0.00 | 383 | 1.81 ± 0.11 | 1.95 ± 0.12 | 
6 | CCOC(=O)/C=C/C1=C(c2ccccc2)N(C(=O)OC(C)(C)C)CCC1=O [Compound 7, (E)-tert-butyl 5-(3-ethoxy-3-oxoprop-1-enyl)-4-oxo-6-phenyl-3,4-dihydropyridine-1(2H)-carboxylate] | 343 | 15426 | 375 | 2.92 ± 0.17 | 1.61 ± 0.13 | 6.36 ± 1.16 |  |  |  | 
7 | CCCC1=CC(=O)CCN1 [Compound 5, 6-propyl-2,3-dihydropyridin-4(1H)-one] | 303 | 12361 | 328 | 1.66 ± 0.003 | 12.17 ± 0.09 | 0.36 ± 0.00 | 335 | 11.18 ± 1.03 | 2.58 ± 0.07 | 
8 | CC1CC(OC(=O)c2ccccc2O)CC(C)(C)C1 (stereo not shown) [Homosalate, reference compound] |  |  | 323 ± 1 | 1.08 ± 0.00 | 1.91 ± 0.04 | 0.17 ± 0.00 |  |  |  | 
9 | CCCCC(CC)COC(=O)c1ccc(Nc2nc(Nc3ccc(C(=O)NC(C)(C)C)cc3)nc(Nc3ccc(C(=O)OCC(CC)CCCC)cc3)n2)cc1 (stereo not shown) [Diethylhexyl Butamido Triazone, reference compound] |  |  |  | 1.27 ± 0.01 | 10.10 ± 0.02 | 0.12 ± 0.01 |  |  |  | 
10 | CC(C)(C)OC(=O)NC1=C(c2ccccc2)N(C(=O)OC(C)(C)C)CCC1=O [Compound 6, tert-butyl 5-(tert-butoxycarbonylamino)-4-oxo-6-phenyl-3,4-dihydropyridine-1(2H)-carboxylate] | 322 | 11206 | 351 | 1.56 ± 0.04 | 2.04 ± 0.09 | 1.24 ± 0.0 |  |  |  | 
11 | COc1ccc(C(=O)c2ccccc2)c(O)c1 [Oxybenzone, reference compound] |  |  | 349 ± 1 | 2.63 ± 0.01 | 5.27 ± 0.25 | 0.98 ± 0.00 |  |  |  | 2.63
12 | CCOC(=O)/C=C/C1=C(c2ccccc2)N[C@@H](COCc2ccccc2)CC1=O [Compound 9, (R,E)-ethyl 3-(6-(benzyloxymethyl)-4-oxo-2-phenyl-1,4,5,6-tetrahydropyridin-3-yl)acrylate] | 308 | 31339 | 353 | 3.54 | 5.40 ± 0.43 | 1.84 |  |  |  | 

Second part, led by results:

Row | λmax exp [2] [nm] | ε (molar extinction coefficient at the λmax) [2] [L/mol/cm] | Molecule | λc p.I [1] [nm] | Colipa UVA-PF p.I, at 10% [1] | SPF p.I, at 10% [1] | UVA/UVB [1] | λc (p.II) [3] [nm] | SPF (p.II, at 1%) [3] | Colipa UVA-PF (p.II, at 1%) [3] | Colipa UVA-PF p.I, at 10% ([1]; listed as oxybenzone)
13 | 355 | 8618 | CN1C=C(NC(=O)OC(C)(C)C)C(=O)CC1 [Compound 18, tert-butyl 1-methyl-4-oxo-1,4,5,6-tetrahydropyridin-3-ylcarbamate] | 368 | 3.49 ± 0.17 | 2.67 ± 0.08 | 3.05 ± 0.04 |  |  |  | 
14 | 331 | 14280 | COc1ccc2cc(C3=CC(=O)CCN3C(=O)OC(C)(C)C)ccc2c1 [Compound 11, tert-butyl 6-(6-methoxynaphthalen-2-yl)-4-oxo-3,4-dihydropyridine-1(2H)-carboxylate] | 362 | 4.70 ± 0.42 | 5.50 ± 0.62 | 1.92 ± 0.01 |  |  |  | 
15 | 316 | 20260 | CCCC1=C(/C=C/C(=O)OCC)C(=O)C[C@H](Cc2ccccc2)N1 [Compound 17, (S,E)-ethyl 3-(6-benzyl-4-oxo-2-propyl-1,4,5,6-tetrahydropyridin-3-yl)acrylate] | 353 | 4.88 ± 0.11 | 13.28 ± 0.66 | 1.46 ± 0.01 |  |  |  | 
16 | 333 | 13110 | COc1ccccc1C1=CC(=O)CCN1 [Compound 16, 6-(2-methoxyphenyl)-2,3-dihydropyridin-4(1H)-one] | 358 | 4.96 ± 0.18 | 5.94 ± 0.34 | 2.12 |  |  |  | 
17 | 316 | 20575 | CC(C)(C)OC(=O)N1CCC(=O)C=C1c1ccc(Oc2ccccc2)cc1 [Compound 12, tert-butyl 4-oxo-6-(4-phenoxyphenyl)-3,4-dihydropyridine-1(2H)-carboxylate] | 340 | 1.98 ± 0.05 | 5.31 ± 0.45 | 0.71 ± 0.01 |  |  |  | 
18 | 337 | 15578 | COc1ccc2cc(C3=CC(=O)CCN3)ccc2c1 [Compound 15, 6-(6-methoxynaphthalen-2-yl)-2,3-dihydropyridin-4(1H)-one] | 368 | 7.41 ± 1.34 | 5.89 ± 0.99 | 2.65 ± 0.01 |  |  |  | 
19 | 310 | 18622 | COc1cc(OC)cc(C2=CC(=O)CCN2C(=O)OC(C)(C)C)c1 [Compound 10, tert-butyl 6-(3,5-dimethoxyphenyl)-4-oxo-3,4-dihydropyridine-1(2H)-carboxylate] | 334 | 1.88 ± 0.01 | 5.54 ± 0.66 | 0.49 ± 0.15 |  |  |  | 
